In US11541050B2, “Pyrimidine derivatives for the treatment of viral infections” (JANSSEN SCIENCES IRELAND UC, priority 2011, dated 2023):

Legend:
[1] = biological target: T1, human TLR8 (wild type sequence) (Homo sapiens, UniProt Q9NR97); experiment: TLR8 cellular NFκB-luc reporter assay, wild type TLR8; format: cell-based; parameters: unit not given here; settings: lowest effective concentration; for TLR 8 wt LEC: wild type TLR8 (compounds 74 onward)
T1 construct: expressed in transfected cells; host or cells: HEK293
T1 sequence (Q9NR97 27-1041): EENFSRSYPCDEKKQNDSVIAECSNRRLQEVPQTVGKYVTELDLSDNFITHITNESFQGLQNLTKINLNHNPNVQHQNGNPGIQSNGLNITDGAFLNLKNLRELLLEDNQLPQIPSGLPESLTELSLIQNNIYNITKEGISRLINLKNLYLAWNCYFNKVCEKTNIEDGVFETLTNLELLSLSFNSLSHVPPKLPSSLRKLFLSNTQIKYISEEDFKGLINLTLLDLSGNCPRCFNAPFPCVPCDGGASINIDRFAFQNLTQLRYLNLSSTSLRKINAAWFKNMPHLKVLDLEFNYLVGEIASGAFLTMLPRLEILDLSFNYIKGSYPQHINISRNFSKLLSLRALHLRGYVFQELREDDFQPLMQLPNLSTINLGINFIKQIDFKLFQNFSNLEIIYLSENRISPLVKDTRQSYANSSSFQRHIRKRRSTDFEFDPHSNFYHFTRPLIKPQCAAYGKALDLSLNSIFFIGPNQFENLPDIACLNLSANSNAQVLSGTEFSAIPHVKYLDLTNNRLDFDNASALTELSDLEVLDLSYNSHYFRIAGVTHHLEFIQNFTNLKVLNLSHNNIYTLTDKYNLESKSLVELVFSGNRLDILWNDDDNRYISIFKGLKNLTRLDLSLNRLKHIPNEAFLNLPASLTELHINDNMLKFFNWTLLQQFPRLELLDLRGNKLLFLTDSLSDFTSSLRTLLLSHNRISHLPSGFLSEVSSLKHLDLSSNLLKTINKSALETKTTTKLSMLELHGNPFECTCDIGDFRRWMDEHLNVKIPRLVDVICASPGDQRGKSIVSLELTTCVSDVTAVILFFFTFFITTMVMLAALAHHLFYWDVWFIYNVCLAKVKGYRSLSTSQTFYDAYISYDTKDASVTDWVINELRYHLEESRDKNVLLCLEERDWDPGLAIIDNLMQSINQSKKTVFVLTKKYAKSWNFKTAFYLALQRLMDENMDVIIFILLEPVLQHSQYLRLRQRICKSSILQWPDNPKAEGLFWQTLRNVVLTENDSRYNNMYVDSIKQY
Protocol: (§1) The ability of compounds to activate human TLR7 and/or TLR8 was assessed in a cellular reporter assay using HEK293 cells transiently transfected with a TLR7 or TLR8 expression vector and NFκB-luc reporter construct. In one instance the TLR expression construct expresses the respective wild type sequence or a mutant sequence comprising a deletion in the second leucine-rich repeat of the TLR.
(§2) Briefly, HEK293 cells were grown in culture medium (DMEM supplemented with 10% FCS and 2 mM Glutamine). For transfection of cells in 10 cm dishes, cells were detached with Trypsin-EDTA, transfected with a mix of CMV-TLR7 or TLR8 plasmid (750 ng), NFκB-luc plasmid (375 ng) and a transfection reagent and incubated for 48 hours at 37° C. in a humidified 5% CO2 atmosphere. Transfected cells were then detached with Trypsin-EDTA, washed in PBS and resuspended in medium to a density of 1.67×10^5 cells/mL. Thirty microliters of cells were then dispensed into each well in 384-well plates, where 10 μL of compound in 4% DMSO was already present. Following 6 hours incubation at 37° C., 5% CO2, the luciferase activity was determined by adding 15 μl of Steady Lite Plus substrate (Perkin Elmer) to each well and readout performed on a ViewLux ultraHTS microplate imager (Perkin Elmer). Dose response curves were generated from measurements performed in quadruplicates. Lowest effective concentrations (LEC) values, defined as the concentration that induces an effect which is at least two fold above the standard deviation of the assay, were determined for each compound.

[2] = biological target: T2, human TLR7 (wild type sequence) (Homo sapiens, UniProt Q9NYK1); experiment: TLR7 cellular NFκB-luc reporter assay, wild type TLR7; format: cell-based; parameters: unit not given here; settings: lowest effective concentration; for TLR 7 wt LEC: wild type TLR7 (compounds 74 onward)
T2 construct: expressed in transfected cells; host or cells: HEK293
T2 sequence (Q9NYK1 27-1049): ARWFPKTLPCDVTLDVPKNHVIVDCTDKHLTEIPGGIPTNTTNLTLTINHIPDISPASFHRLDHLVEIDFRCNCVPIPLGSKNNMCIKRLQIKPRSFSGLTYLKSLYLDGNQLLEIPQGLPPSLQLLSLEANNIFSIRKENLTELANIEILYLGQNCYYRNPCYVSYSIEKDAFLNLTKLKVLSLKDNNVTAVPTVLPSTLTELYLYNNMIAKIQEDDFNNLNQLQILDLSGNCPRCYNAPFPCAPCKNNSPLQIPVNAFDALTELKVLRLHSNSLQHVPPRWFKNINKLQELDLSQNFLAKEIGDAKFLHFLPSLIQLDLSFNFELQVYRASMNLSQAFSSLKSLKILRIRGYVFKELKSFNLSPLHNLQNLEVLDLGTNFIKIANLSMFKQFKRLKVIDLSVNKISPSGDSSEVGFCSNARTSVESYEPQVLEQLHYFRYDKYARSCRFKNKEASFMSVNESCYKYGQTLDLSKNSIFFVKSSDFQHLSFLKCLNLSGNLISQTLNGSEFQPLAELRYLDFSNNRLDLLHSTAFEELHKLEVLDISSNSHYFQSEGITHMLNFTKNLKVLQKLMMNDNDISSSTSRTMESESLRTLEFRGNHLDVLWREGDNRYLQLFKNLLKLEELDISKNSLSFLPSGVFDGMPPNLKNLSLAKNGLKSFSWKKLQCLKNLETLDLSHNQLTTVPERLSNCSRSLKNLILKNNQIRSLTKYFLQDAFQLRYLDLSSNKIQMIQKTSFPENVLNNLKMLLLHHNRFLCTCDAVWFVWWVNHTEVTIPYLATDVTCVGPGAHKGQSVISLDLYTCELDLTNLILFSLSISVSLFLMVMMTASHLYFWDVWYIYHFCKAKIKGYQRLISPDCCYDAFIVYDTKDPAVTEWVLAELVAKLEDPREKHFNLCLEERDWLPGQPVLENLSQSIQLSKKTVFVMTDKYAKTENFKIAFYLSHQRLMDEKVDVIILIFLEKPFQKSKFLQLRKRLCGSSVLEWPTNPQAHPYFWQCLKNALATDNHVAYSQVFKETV
Protocol: as §1, §2

[3] = tested on: HCV replicon in Huh-7 luc/neo cells; experiment: Suppression of HCV replicon replication by conditioned media from compound-treated PBMC; format: cell-based, HCV type 1 b; settings: Hepatitis C virus; conditioned media from compound-treated PBMC on Huh-7 luc/neo replicon cells (compounds 74 onward); read-out: PBMC HUH-7 EC50
Protocol: Activation of human TLR7 results in robust production of interferon by plasmacytoid dendritic cells present in human blood. The potential of compounds to induce interferon was evaluated by looking at the antiviral activity in the HCV replicon system upon incubation with conditioned media from peripheral blood mononuclear cells (PBMC). […] The assay utilized the stably transfected cell line Huh-7 luc/neo harboring an RNA encoding a bicistronic expression construct comprising the wild type NS3-NS5B regions of HCV type 1 b translated from an Internal Ribosome Entry Site (IRES) from encephalomyocarditis virus (EMCV), preceded by a reporter gene (Firefly-luciferase) and a selectable marker gene (neoR, neomycine phosphotransferase). The construct is flanked by 5′ and 3′ NTRs (non-translated regions) from HCV type 1 b. Continued culture of the replicon cells in the presence of G418 (neoR) is dependent on the replication of the HCV RNA. The stably transfected replicon cells that replicate HCV RNA autonomously and to high levels, encoding inter alia luciferase, were used for profiling of the conditioned cell culture media.
Briefly, PBMCs were prepared from buffy coats of at least two donors using a standard Ficoll centrifugation protocol. Isolated PBMCs were resuspended in RPMI medium supplemented with 10% human AB serum and 2×10^5 cells/well were dispensed into 384-well plates containing compounds (70 μL total volume). After overnight incubation, 10 μL of supernatant was transferred to 384-well plates containing 2.2×10^3 replicon cells/well in 30 μL (plated the day before). Following 24 hours of incubation, replication was measured by assaying luciferase activity using 40 μL/well Steady Lite Plus substrate (Perkin Elmer) and measured with ViewLux ultraHTS microplate imager (Perkin Elmer). […] Recombinant interferon α-2a (Roferon-A) was used as a standard control compound.

[4] = wild type TLR8 (compounds 1-73)
[5] = wild type TLR7 (compounds 1-73)

TLR8-wt_LEC [1, 4] | TLR 8 wt LEC [1] | TLR 7 wt LEC [2] | Compound | also measured
2.42 |  |  | CCCCNc1nc(N)ncc1OCc1ccccc1 [Compound 1] | TLR7-wt_LEC [2, 5]: 0.90
4.53 |  |  | CCCCNc1nc(N)ncc1OCCC [Compound 5] | TLR7-wt_LEC [2, 5]: 6.18
7.94 |  |  | CCCCNc1nc(N)ncc1OCCCc1ccccc1 [Compound 19] | TLR7-wt_LEC [2, 5]: 1.53
1.68 |  |  | CCCCNc1nc(N)ncc1OCc1c(C)noc1C [Compound 36] | 
0.83 |  |  | CCCCNc1nc(N)ncc1OCc1ccc2ccccc2n1 [Compound 41] | 
1.15 |  |  | CCCCNc1nc(N)ncc1OCc1nccc(OC)c1OC [Compound 42] | 
1.75 |  |  | CCCCNc1nc(N)ncc1OCc1cc(C)nn1C [Compound 48] | 
1.40 |  |  | CCCC[C@@H](CCO)Nc1nc(N)ncc1OC [Compound 54] | 
0.16 |  |  | CCC[C@@H](CO)Nc1nc(N)ncc1OC [Compound 55] | 
1.80 |  |  | CCC[C@@H](CCO)Nc1nc(N)ncc1OC [Compound 57] | 
0.36 |  |  | CCCC[C@@H](CO)Nc1nc(N)ncc1OC [Compound 59] | 
0.55 |  |  | CCCC(CO)Nc1nc(N)ncc1OC (stereo not shown) [Compound 62] | TLR7-wt_LEC [2, 5]: 21.26
3.68 |  |  | CCCC(C)Nc1nc(N)ncc1OC (stereo not shown) [Compound 65] | TLR7-wt_LEC [2, 5]: 21.59
9.03 |  |  | COc1cnc(N)nc1NCCCC(F)(F)F [Compound 66] | 
0.56 |  |  | CC[C@H](C)[C@@H](CO)Nc1nc(N)ncc1OC [Compound 68] | 
6.57 |  |  | CCC[C@H](CO)Nc1nc(N)ncc1OC [Compound 72] | 
0.80 |  |  | CCCC[C@H](CO)Nc1nc(N)ncc1OC [Compound 73] | 
 | 0.827 | 0.519 | CCCCNc1nc(N)ncc1OCc1cccnn1 [Compound 78] | 

TLR8-wt_LEC [1, 4] | TLR 8 wt LEC [1] | TLR 7 wt LEC [2] | Compound | also measured
 | 8.460 | >25 | C=CCNc1nc(N)ncc1OC [Compound 90] | 
 | 20.850 | >25 | COc1cnc(N)nc1NCCC1CC1 [Compound 91] | 
 | 15.880 | >25 | COc1cnc(N)nc1N[C@H](CO)CC(C)C [Compound 93] | 
 | 0.143 | 0.008 | CCCCNc1nc(N)ncc1OCc1nccc2ccccc12 [Compound 123] | 
 | 1.110 | 0.333 | CCCCNc1nc(N)ncc1OCc1ccc2ccccc2n1 [Compound 157] | 
 | >25 | 11.850 | CCCCNc1nc(N)ncc1OCCCc1ccccc1C(F)(F)F [Compound 162] | 
 | 0.410 | 0.810 | CCCCNc1nc(N)ncc1OCc1nc(C)oc1C [Compound 178] | 
 | 0.524 | 0.135 | CCCCNc1nc(N)ncc1OCc1nccc(OC)c1OC [Compound 180] | 
 | 0.178 | 0.014 | CCCCNc1nc(N)ncc1OCc1nn(C)c2ccccc12 [Compound 182] | 
 | 0.743 | 0.286 | CCCCNc1nc(N)ncc1OCc1csc(C)n1 [Compound 191] | 
 | 0.654 | 0.032 | CCCCNc1nc(N)ncc1OCc1nc2ccccc2[nH]1 [Compound 193] | 
 |  |  | CCCCNc1nc(N)ncc1OCc1cnccn1 [Compound 199] | TLR8-wt_LEC [1]: 0.218; TLR7-wt_LEC ([2]; wild type TLR7): 0.512
 |  |  | CCCCNc1nc(N)ncc1OCc1nc2ccccc2s1 [Compound 222] | TLR7-wt_LEC ([2]; wild type TLR7): 0.277
 |  |  | CCCCNc1nc(N)ncc1OCc1cc2ccccn2n1 [Compound 224] | TLR7-wt_LEC ([2]; wild type TLR7): 0.206
 |  |  | CCCC[C@H](CCO)Nc1nc(N)ncc1OC [Compound 229] | TLR7-wt_LEC ([2]; wild type TLR7): >25
 |  |  | CCCCNc1nc(N)ncc1OC(C)C [Compound 233] | TLR7-wt_LEC ([2]; wild type TLR7): 10.070
 |  |  | COc1cnc(N)nc1N[C@H](CCO)CC(C)C [Compound 261] | TLR7-wt_LEC ([2]; wild type TLR7): 10.790
 |  |  | CCC(C)[C@H](CCO)Nc1nc(N)ncc1OC (stereo partly shown) [Compound 275] | TLR7-wt_LEC ([2]; wild type TLR7): 10.380

Compound | TLR8-wt_LEC [1, 4] | TLR 8 wt LEC [1] | TLR 7 wt LEC [2] | also measured
CCCCNc1nc(N)ncc1OCCCc1ccc(OC)c(OC)c1 [Compound 74] |  | 1.720 | 0.713 | EC50 [3]: 157 nM
CCCCNc1nc(N)ncc1OCCCCCc1ccccc1 [Compound 111] |  |  | 0.257 | EC50 [3]: 96 nM
CCCCNc1nc(N)ncc1OCCCc1ccc(C(F)(F)F)cc1 [Compound 153] |  |  | 10.640 | EC50 [3]: 3430 nM
